The values below come from US10844081B2, “Protected organoboronic acids with tunable reactivity, and methods of use thereof” (The Board of Trustees of the University of Illinois, priority 2015, dated 2020).

Data set [1] can be described thus: Solubility of boronates in room temperature THF (NMR vs internal standard). It counts as physicochemical. On the procedure: To determine the solubility of each boronate given in the following table, a concentrated solution was prepared by repeated addition to a small amount (˜200 μL) of room temperature THF in a 7-mL vial until solid no longer dissolved upon stirring. The vials were then allowed to stir at room temperature overnight. […] 100 μL of the mixture was then filtered and had solvent removed. The residue was then taken up in 500 μL DMSO-d6 containing 1,4-dimethoxybenzene (˜0.01 M) as an internal standard and transferred to an NMR tube. The concentrations of the solutions were then determined by integration relative to internal standard. In each case, the measurements are an average of two experiments.

Data set [2] can be described thus: Hydrolysis of MIDA boronate derivatives under slow release conditions (K3PO4, THF-d8/D2O, 60° C., 1H NMR). The settings on record: for krel, relative rate constant for hydrolysis with respect to MIDA (krel=1): 5:1 THF-d8:D2O, 7.5 eq. K3PO4, 60° C.; for reduction in the rate of hydrolysis: relative to MIDA boronate; for boronate remaining: at 6 hours. The class given is physicochemical. The procedure: Compounds 1-6 (FIG. 4A) were prepared and then characterized in terms of their rates of hydrolysis under defined conditions relative to MIDA compound 4. Reaction conditions were: 5:1 THF-d8:D2O, 0.07 M in boronate, 7.5 eq. K3PO4, 60° C. Reactions were stirred for 0.5 to 2.0 h before being cooled and diluted with DMSO-d6 containing 1,4-dimethoxybenzene as an internal standard. ^1H NMR was taken immediately to determine % boronate remaining. For compounds 1, 2, and 3, n=2 and the average between the two runs is represented in the figure.
To each of twelve 1 mL conical vials equipped with stirring vanes was added 100 μL (0.08 M, 0.008 mmol) of a THF-d8 solution of the indicated boronate, followed by 20 μL (3.0 M, 0.06 mmol, 7.5 eq.) of a D2O solution of K3PO4. Each vial was then capped, shaken briefly to mix, and then stirred in a 60° C. heat block at 800 RPM. At the indicated times, two vials were removed from the heat block, cooled briefly under a stream of air, and then had 680 μL DMSO-d6 containing 1,4-dimethoxybenzene (˜0.008 M) as an internal standard added. The vials were then again briefly capped, shaken to mix, and the solutions were then immediately transferred to NMR tubes and spectra were taken (16 scans, d1=10 s). Time points were taken at 0, 0.5, 1, 1.5, 2.0, 4.0, and 6.0 hours. The solutions for the 0 time points were made directly in the NMR tubes, shaken, and then had spectra obtained. The percentage boronate remaining was determined by average the integration of the aryl protons (which fully resolved from the corresponding aryl protons on the parent boronic acid) across the two runs, except in the case of octyl TIDA boronate, for which the terminal methyl group of the octyl chain was used. Relative rate constants were obtained by assuming pseudo-first order kinetics and plotting the natural log of percentage boronate remaining vs time (ie. ln([boronate]/[boronate]o) vs t) (FIG. 13).
Each time point represents the average of n=2 experiments, except in the case of the N-Cy and N-iPr MIDA, for which n=1.

Setting [3] is: slow release hydrolysis conditions.

With `Cc1ccc([B-]23OC(=O)C(C)(C)[N+]2(C)C(C)(C)C(=O)O3)cc1` (stereo not shown) [p-tolylTIDA boronate, p-Tolyl TIDA Boronate], the “solubility in THF (in words)” value in data set [1] is listed as “lack of solubility”.

5-Formyl-2-furanyl TIDA Boronate: the “solubility in THF” value in data set [1] was 0.212 M.

As to p-Tolyl DiethylMIDA Boronate, the “krel, relative rate constant for hydrolysis with respect to MIDA (krel=1)” value (from here on “krel, relative rate constant”) in data set [2] is given as 0.12.

As for `CN1CC(=O)OB(c2ccc(C=O)o2)OC(=O)C1` [5-Formyl-2-furyl MIDA boronate, reference compound], the “solubility in THF” value in data set [1] is recorded as “trace”.

p-Tolyl SchMIDA Boronate: in data set [2], the “krel, relative rate constant” value is on record as 0.092 and the “reduction in the rate of hydrolysis” value turned out to be 10.9 fold.

On to p-Tolyl DibutylMIDA boronate [R=nBu], for which, in data set [2] (setting [3]), the boronate remaining entry is “about 25%”.

Take “Octyl TIDA Boronate [octylTIDA boronate]”: the “solubility in THF (in words)” value in data set [1] was “completely soluble”. Further, the “hydrolysis after 6 hours (in words)” value in data set [2] (after 6 hours, slow release hydrolysis conditions) is “no measurable hydrolysis”.

In the case of p-Tolyl DimethylMIDA Boronate, in data set [2], the “krel, relative rate constant” value is listed as 0.08 and the “reduction in the rate of hydrolysis” value was 12.5 fold. In data set [2] (setting [3]), this compound gave a boronate remaining of approximately 80%. Besides, the “rate of hydrolysis with added phase transfer catalyst (in words)” value in data set [2] (free dibutyl ligand or tetrabutylammonium bromide added) is listed as “hydrolyzed faster than the lone boronate”.
